Test results reported in patent US8168673B2, “Compounds having CRTH2 antagonist activity” (Oxagen Limited, priority 2008, dated 2012).

How the values were obtained:
CRTH2 Receptor [1] = target: T1, CRTH2 Receptor (Homo sapiens, UniProt Q9Y5Y4); assay: Radioligand binding assay, [3H]PGD2 on CHO/CRTH2 cell membranes; details: [3H]PGD2 competition
T1 construct: expressed in transfected cells; membranes
T1 sequence (Q9Y5Y4 1-395): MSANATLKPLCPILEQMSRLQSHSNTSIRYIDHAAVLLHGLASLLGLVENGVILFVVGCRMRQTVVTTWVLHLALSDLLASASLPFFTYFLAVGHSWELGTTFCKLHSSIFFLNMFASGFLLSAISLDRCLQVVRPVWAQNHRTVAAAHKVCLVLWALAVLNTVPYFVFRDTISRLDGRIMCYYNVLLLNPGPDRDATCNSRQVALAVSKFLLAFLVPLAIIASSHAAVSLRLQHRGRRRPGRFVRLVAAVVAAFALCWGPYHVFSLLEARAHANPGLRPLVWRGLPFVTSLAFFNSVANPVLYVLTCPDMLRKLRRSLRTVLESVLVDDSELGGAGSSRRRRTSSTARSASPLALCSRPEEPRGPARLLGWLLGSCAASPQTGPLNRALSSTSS
Procedure: Chinese Hamster Ovary cells were transfected with CRTH2 or DP receptors (CHO/CRTH2 and CHO/DP) and were maintained in culture in a humidified atmosphere at 37° C. (5% CO2) in Minimum Essential Medium (MEM) supplemented with 10% foetal bovine serum, 2 mM glutamine, and 1 mg ml^−1 active G418. The cells were passaged every 2-3 days. For radioligand binding assay, cells were prepared in triple-layer flasks or in 175 cm^2 square flasks (for membrane preparation.
Membranes were prepared either from CHO/CRTH2 and CHO/DP cells, or from platelets (as a source of TP receptors). CHO cells grown to confluency were washed with PBS and detached using a Versene solution (15 ml per flask). When the cells were grown in 175 cm^2 square flask, they were collected by scrapping in PBS. The cell suspensions were centrifuged (1,700 rpm, 10 min, 4° C.) and resuspended in 15 ml of buffer (1×HBSS, supplemented with 10 mM HEPES, pH 7.3). Cell suspensions were then homogenised using an Ultra Turrax at setting 4-6 for 20 s. The homogenate was centrifuged at 1,700 rpm for 10 min and the supernatant was collected and centrifuged at 20,000 rpm for 1 h at 4° C. The resulting pellet was resuspended in buffer and stored at −80° C. in aliquots of 200-500 μl. The protein concentration was determined by the method of Bradford (1976), using bovine serum albumin as standard. The platelets were washed by centrifugation at 600×g for 10 min and resuspended in ice-cold assay buffer (10 mM Tris-HCl, pH 7.4, 5 mM Glucose, 120 mM NaCl, 10 μM indomethacin) and directly centrifuged at 20,000 rpm for 30 min at 4° C. The resulting pellet was treated as described above.
[^3H]PGD2 (160 Ci/mmol) binding experiments were performed on membranes prepared as described above. Assays were performed in a final volume of 100 μl of buffer (1×HBSS/HEPES 10 mM, pH 7.3). Cell membranes (15 μg) were preincubated at room temperature with varying concentration of competing ligand for 15 min. [^3H]PGD2 was then added and the incubation continued for a further one hour at room temperature. The reaction was terminated by the addition of 200 μl ice-cold assay buffer to each well, followed by rapid filtration through Whatman GF/B glass fibre filters using a Unifilter Cell harvester (PerkinElmer Life Sciences) and six washes of 300 μl of ice-cold buffer. The Unifilter plates were dried at room temperature for at least 1 h and the radioactivity retained on the filters was determined on a Beta Trilux counter (PerkinElmer Life Sciences), following addition of 40 μl of Optiphase Hi-Safe 3 (Wallac) liquid scintillation. Non specific binding was defined in the presence of 10 μM unlabelled PGD2. Assays were performed in duplicate.

[2] = tested on: PGD2 induced eosinophil shape change; assay: Human whole blood eosinophil shape change assay; format: cell-based; details: for IC50: Eosinophil, human whole blood, 10 nM PGD2, read-out: IC50 Values for the Effect of Test Compounds on 10 nM PGD2-induced Eosinophil Shape Change; for activity in whole blood, in words: summary statement on Table 2
Procedure: Compounds 1 to 9 were assayed for their effect on PGD2 induced eosinophil shape change.
Compounds (1 μl, 200× final concentration) were added directly to 200 μl whole blood, mixed well and incubated for 15 min, 37° C., 5% CO2. After this time, cell shape was fixed by addition of 300 μl Cytofix™ buffer (BD Biosciences), 15 min on ice. 10 ml RBC lysis buffer was added to the fixed cells, incubated 5 min, at room temperature and centrifuged, 300×g for 5 min. Supernatant (containing lysed red cells) was removed and the lysis step was repeated. Leukocytes were resuspended in 250 μl RPMI/10% FCS and shape change analysed by FACS. Eosinophils were gated out based on their autofluorescence and 2000 eosinophil events were counted per sample. Data were analysed in triplicate.

CRTH2 Receptor [3] = target: T1, CRTH2 Receptor; assay: Radioligand binding assay, [3H]PGD2 on CHO/CRTH2 cell membranes; details: summary statement on Table 1

| Ki (CRTH2 Receptor [1]) [nM] | IC50 [2] [nM] | intrinsic activity (CRTH2 antagonist), in words (CRTH2 Receptor [3]) | Structure (SMILES) | activity in whole blood, in words [2] |
| --- | --- | --- | --- | --- |
| 55 | – | – | Cc1c(Cc2cccc(S(=O)(=O)N3CCCCC3)c2)c2cc(F)ccc2n1CC(=O)O [Compound 4, 2-(5-Fluoro-2-methyl-3-(3-(piperidin-1-ylsulfonyl)benzyl)-1H-indol-1-yl)acetic Acid] | – |
| 3 | 240 | – | Cc1c(Cc2ccccc2S(=O)(=O)C2CCC2)c2cc(F)ccc2n1CC(=O)O [Compound 8, 2-(3-(2-(Cyclobutylsulfonyl)benzyl)-5-fluoro-2-methyl-1H-indol-1-yl)acetic Acid] | – |
| 100 | – | – | Cc1c(Cc2cccc(S(=O)(=O)N3CCCC3)c2)c2cc(F)ccc2n1CC(=O)O [Compound 9, 2-(5-Fluoro-2-methyl-3-(3-(pyrrolidin-1-ylsulfonyl)benzyl)-1H-indol-1-yl)acetic Acid] | – |
| 5 | 44 | – | Cc1c(Cc2ccc(S(=O)(=O)C3CCCC3)cc2)c2cc(F)ccc2n1CC(=O)O [Compound 7, 2-(3-(4-(Cyclopentylsulfonyl)benzyl)-5-fluoro-2-methyl-1H-indol-1-yl)acetic Acid] | – |
| – | 5 | high intrinsic activity | Cc1c(Cc2ccccc2S(=O)(=O)N2CCCC2)c2cc(F)ccc2n1CC(=O)O [Compound 5, 2-(5-Fluoro-2-methyl-3-(2-(pyrrolidin-1-ylsulfonyl)benzyl)-1H-indol-1-yl)acetic Acid] | activity is maintained in whole blood |
| 0.02 | 6 | high intrinsic activity | Cc1c(Cc2ccccc2S(=O)(=O)C2CCCCC2)c2cc(F)ccc2n1CC(=O)O [Compound 1, 2-(3-(2-(Cyclohexylsulfonyl)benzyl)-5-fluoro-2-methyl-1H-indol-1-yl)acetic acid] | activity is maintained in whole blood |
| 1 | – | – | Cc1c(Cc2ccc(S(=O)(=O)N3CCCCC3)cc2)c2cc(F)ccc2n1CC(=O)O [Compound 10, 2-(5-Fluoro-2-methyl-3-(4-(piperidin-1-ylsulfonyl)benzyl)-1H-indol-1-yl)acetic Acid] | – |
| 0.04 | 5 | high intrinsic activity | Cc1c(Cc2ccccc2S(=O)(=O)N2CCCCC2)c2cc(F)ccc2n1CC(=O)O [Compound 2, 2-(5-Fluoro-2-methyl-3-(2-(piperidin-1-ylsulfonyl)benzyl)-1H-indol-1-yl)acetic Acid] | activity is maintained in whole blood |
| 2 | 85 | – | Cc1c(Cc2ccc(S(=O)(=O)C3CCCCC3)cc2)c2cc(F)ccc2n1CC(=O)O [Compound 6, 2-(3-(4-(Cyclohexylsulfonyl)benzyl)-5-fluoro-2-methyl-1H-indol-1-yl)acetic Acid] | – |
| 0.2 | 7 | high intrinsic activity | Cc1c(Cc2ccccc2S(=O)(=O)C2CCCC2)c2cc(F)ccc2n1CC(=O)O [Compound 3, 2-(3-(2-(Cyclopentylsulfonyl)benzyl)-5-fluoro-2-methyl-1H-indol-1-yl)acetic Acid] | activity is maintained in whole blood |
